The results in this text go back to publication PMC6044684 (ACS Omega, 2016).

This experiment concerns the target epidermal growth factor receptor (EGFR) (Homo sapiens, UniProt P00533). In words: SPR. The class given is binding.

epidermal growth factor receptor (EGFR), sequence (P00533 25-1210): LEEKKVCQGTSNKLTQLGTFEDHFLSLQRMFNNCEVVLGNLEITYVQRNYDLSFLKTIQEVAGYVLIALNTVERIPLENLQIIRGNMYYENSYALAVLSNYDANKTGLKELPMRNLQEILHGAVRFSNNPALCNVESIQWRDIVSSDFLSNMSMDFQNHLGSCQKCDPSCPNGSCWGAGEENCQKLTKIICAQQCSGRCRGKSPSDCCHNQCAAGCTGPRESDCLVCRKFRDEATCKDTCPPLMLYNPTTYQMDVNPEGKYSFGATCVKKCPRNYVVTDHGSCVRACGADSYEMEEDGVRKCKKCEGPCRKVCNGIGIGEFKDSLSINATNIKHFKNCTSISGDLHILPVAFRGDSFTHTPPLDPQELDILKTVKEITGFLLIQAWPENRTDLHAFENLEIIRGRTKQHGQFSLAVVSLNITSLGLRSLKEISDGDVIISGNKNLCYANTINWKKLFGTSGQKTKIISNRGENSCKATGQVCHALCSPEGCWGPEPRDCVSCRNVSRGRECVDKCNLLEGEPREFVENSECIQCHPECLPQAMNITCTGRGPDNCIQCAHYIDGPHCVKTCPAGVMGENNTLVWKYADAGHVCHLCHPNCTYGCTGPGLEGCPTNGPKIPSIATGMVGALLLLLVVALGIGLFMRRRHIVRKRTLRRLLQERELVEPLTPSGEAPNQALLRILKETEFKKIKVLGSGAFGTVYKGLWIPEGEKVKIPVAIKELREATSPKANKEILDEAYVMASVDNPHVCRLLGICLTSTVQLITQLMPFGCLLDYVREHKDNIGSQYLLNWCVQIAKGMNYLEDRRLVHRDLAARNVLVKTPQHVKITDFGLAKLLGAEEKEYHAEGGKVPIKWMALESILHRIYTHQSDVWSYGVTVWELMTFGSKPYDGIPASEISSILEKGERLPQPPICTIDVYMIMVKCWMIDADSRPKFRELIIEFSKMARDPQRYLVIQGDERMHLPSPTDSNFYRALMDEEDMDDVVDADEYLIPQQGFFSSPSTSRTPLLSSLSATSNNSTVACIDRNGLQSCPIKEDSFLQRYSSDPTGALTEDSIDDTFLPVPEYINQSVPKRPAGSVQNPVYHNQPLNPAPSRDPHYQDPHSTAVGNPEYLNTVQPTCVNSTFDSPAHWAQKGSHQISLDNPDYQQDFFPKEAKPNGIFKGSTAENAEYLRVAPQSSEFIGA

In the case of `Clc1ccc(C2=NN(c3nc(C45CC6CC(CC(C6)C4)C5)cs3)C(c3ccccc3)C2)c(Cl)c1` (stereo not shown) [3e, 4-(adamantan-1-yl)-2-(3-(2,4-dichlorophenyl)-5-phenyl-4,5-dihydro-1H-pyrazol-1-yl)thiazole], the Kd (in general, the equilibrium constant for the complex coming apart) turned out to be 11.8 ± 2.4 µM.
